# Laboratory results taken from patent US9725414B2, “Fungicidal N-bicycloalkyl and N-tricycloalkyl pyrazole-4-(thio)carboxamide derivatives” (priority 2011, dated 2017).
# Experiments:
# Alternaria solani = assay: Example C: in vivo preventive test on Alternaria solani (tomato); settings: 500 ppm of active ingredient, evaluated 7 days after inoculation
# How it was run: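 Young tomato plants sprayed preventively with compound formulated in DMF/emulsifier and diluted with water, then inoculated one day later with Alternaria solani spores. Plants were held one day at about 22° C, 100% humidity, then at about 20° C, 96% humidity.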
# Botrytis cinerea = assay: Example O: in vivo protective test on Botrytis cinerea (beans); settings: 100 ppm of active ingredient, lesion size 2 days after inoculation
# Method: In Vivo Protective Test on Botrytis cinerea (Beans)
# Solvent: 24.5 parts by weight of acetone • 24.5 parts by weight of N,N-dimethylacetamide
# Emulsifier: 1 part by weight of alkylaryl polyglycol ether
# To produce a suitable preparation of active compound, 1 part by weight of active compound is mixed with the stated amounts of solvent and emulsifier, and the concentrate is diluted with water to the desired concentration.
# To test for preventive activity, young plants are sprayed with the preparation of active compound. After the spray coating has dried on, 2 small pieces of agar covered with growth of Botrytis cinerea are placed on each leaf. The inoculated plants are placed in a darkened chamber at 20° C. and a relative atmospheric humidity of 100%.
# 2 days after the inoculation, the size of the lesions on the leaves is evaluated. 0% means an efficacy which corresponds to that of the untreated control, while an efficacy of 100% means that no disease is observed.
SMILES,Efficacy (Alternaria solani),Efficacy (Botrytis cinerea)
CC(C1CC2CCC1C2)N(C(=O)c1c(C(F)F)nn(C)c1F)C1CC1 (stereo not shown) [Example 93],95%,100%
Cn1nc(C(F)F)c(C(=O)N(CC2CC3CCC2C3)C2CC2)c1F (stereo not shown) [Example 71],100%,97%
